{
  "source": "patent US7572811B2",
  "about": "“Immunosuppressant compounds and compositions” (IRM LLC, priority 2004, dated 2009)",
  "key": {"human EDG-1 (S1P-1)": {"molecular_target": "T1, human EDG-1 (S1P-1) (Homo sapiens, UniProt P21453)", "T1 construct": "c-myc (N); expressed in transfected cells; host or cells: CHO cell clones (membrane preparation)", "T1 sequence (P21453 whole entry)": "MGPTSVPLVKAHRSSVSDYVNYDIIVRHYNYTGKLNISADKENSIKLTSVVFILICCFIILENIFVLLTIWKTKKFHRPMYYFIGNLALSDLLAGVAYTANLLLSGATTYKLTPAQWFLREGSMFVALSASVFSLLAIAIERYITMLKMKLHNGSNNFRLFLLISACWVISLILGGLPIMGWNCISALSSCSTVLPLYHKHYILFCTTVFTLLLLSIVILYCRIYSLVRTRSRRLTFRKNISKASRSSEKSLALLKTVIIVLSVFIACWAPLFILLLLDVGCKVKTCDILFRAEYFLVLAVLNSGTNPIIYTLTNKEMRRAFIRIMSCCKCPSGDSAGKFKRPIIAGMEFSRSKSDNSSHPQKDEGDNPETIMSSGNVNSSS", "test": "EDG-1 (S1P1) GTP [γ-35S] binding SPA assay", "format": "biochemical", "settings": "for EC50: GTP [γ-35S] binding, CHO cell membranes", "procedure": "(§1) A. In Vitro: A Scintillation Proximity Assay (SPA) for Measuring GTP [γ-^35S] Binding to Membranes Prepared from CHO Cells Expressing Human EDG/S1P Receptors\n(§2) EDG-1 (S1P1) GTP [γ-^35S] binding assay: Membrane protein suspensions are prepared from CHO cell clones stably expressing a human EDG-1 N-terminal c-myc tag. Solutions of test compounds ranging from 10 mM to 0.01 nM are prepared in DMSO/50 mM HCl and then diluted into assay buffer (20 mM HEPES, pH7.4, 100 mM NaCl, 10 mM MgCl2, 0.1% fat free BSA). Assay buffer containing 10 mM GDP is mixed with wheat germ agglutinin-coated SPA-beads (1 mg/well) followed by the addition of human EDG-1 membrane protein suspension (10 μg/well) and test compound. The bead/membrane/compound assay components are then mixed for 10-15 minutes on a shaker at room temperature. GTP [γ-^35S] (200 pM) and bead/membrane/compound assay mixture are added to individual wells of a 96 well Optiplate™ (final volume 225 μl/well), sealed and incubated at room temperature for 110 to 120 minutes under constant shaking. After centrifugation (2000 rpm, 10 minutes) luminescence is measured with a TopCount™ instrument.\nEC50 values are obtained by fitting the GTP [γ-^35S] binding curves (raw data) with the dose response curve-fitting tool of ORIGIN V. 6.1. Basal binding (no compound) and the highest stimulation of GTP [γ-^35S] binding achieved by an agonist are used as the fitting range. Seven different concentrations are used to generate a concentration response curve (using two or three data points per concentration).\nConcentrations of EDG receptor expressing membranes range between 13-19 μg per well."}, "[1]": {"system": "peripheral blood lymphocytes", "test": "Measurement of circulating lymphocytes (blood lymphocyte depletion)", "format": "in vivo, Mice (C57bl/6 male)", "settings": "Mus musculus, mice, oral gavage, read-out: ED50 (effective dose for 50% blood lymphocyte depletion)", "procedure": "C. In Vivo: Screening Assays for Measurement of Blood Lymphocyte Depletion and Assessment of Heart Effect\nMeasurement of circulating lymphocytes: Compounds are dissolved in DMSO and diluted to obtain a final concentration of 4% DMSO (v/v, final concentration) and then further diluted in a constant volume of Tween80 25%/H2O, v/v. Tween80 25%/H2O (200 μl), 4% DMSO, and FTY720 (10 μg) are included as negative and positive controls, respectively. Mice (C57bl/6 male, 6-10 week-old) are administered 250-300 μL of compound solution orally by gavages under short isoflurane anesthesia.\n[…] Whole blood samples are subjected to hematology analysis. Peripheral lymphocyte counts are determined using an automated analyzer. Subpopulations of peripheral blood lymphocytes are stained by fluorochrome-conjugated specific antibodies and analyzed using a fluorescent activating cell sorter (Facscalibur). Two mice are used to assess the lymphocyte depletion activity of each compound screened. The result is an ED50, which is defined as the effective dose required displaying 50% of blood lymphocyte depletion."}, "S1P-2 (EDG-5)": {"molecular_target": "T2, S1P-2 (EDG-5) (Homo sapiens, UniProt O95136)", "T2 construct": "expressed in transfected cells; host or cells: CHO cells (membrane preparation)", "T2 sequence (O95136 whole entry)": "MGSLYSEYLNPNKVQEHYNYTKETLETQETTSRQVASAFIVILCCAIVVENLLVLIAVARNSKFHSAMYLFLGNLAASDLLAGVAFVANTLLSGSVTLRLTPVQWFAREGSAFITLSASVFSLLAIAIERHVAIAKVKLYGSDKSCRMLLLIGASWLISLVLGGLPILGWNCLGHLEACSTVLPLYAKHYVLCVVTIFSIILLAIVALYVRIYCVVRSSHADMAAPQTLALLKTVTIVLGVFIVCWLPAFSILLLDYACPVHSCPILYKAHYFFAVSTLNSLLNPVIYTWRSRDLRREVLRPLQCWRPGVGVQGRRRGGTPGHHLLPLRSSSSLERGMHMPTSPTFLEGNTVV", "test": "EDG-5 GTP [γ-35S] binding SPA assay", "format": "biochemical", "procedure": "as §1, §2\n(§3) EC50 values are obtained by fitting the GTP [γ-^35S] binding curves (raw data) with the dose response curve-fitting tool of ORIGIN V. 6.1. […]"}, "S1P-3 (EDG-3)": {"molecular_target": "S1P-3 (EDG-3) (Homo sapiens, UniProt Q99500)", "sequence (Q99500 whole entry)": "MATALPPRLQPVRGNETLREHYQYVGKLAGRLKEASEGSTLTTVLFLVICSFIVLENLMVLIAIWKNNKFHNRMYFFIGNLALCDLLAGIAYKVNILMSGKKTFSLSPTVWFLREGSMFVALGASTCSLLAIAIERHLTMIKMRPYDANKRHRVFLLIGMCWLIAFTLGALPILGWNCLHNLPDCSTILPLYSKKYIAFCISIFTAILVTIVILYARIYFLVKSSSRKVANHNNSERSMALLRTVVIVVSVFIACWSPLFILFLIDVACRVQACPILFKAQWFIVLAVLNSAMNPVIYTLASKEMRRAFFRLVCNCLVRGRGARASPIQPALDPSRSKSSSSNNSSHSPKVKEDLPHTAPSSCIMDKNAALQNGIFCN", "test": "EDG-3 GTP [γ-35S] binding SPA assay", "format": "biochemical", "procedure": "as §1, §2, §3"}, "S1P-4 (EDG-6)": {"molecular_target": "T3, S1P-4 (EDG-6) (Homo sapiens, UniProt O95977)", "T3 sequence (O95977 1-384)": "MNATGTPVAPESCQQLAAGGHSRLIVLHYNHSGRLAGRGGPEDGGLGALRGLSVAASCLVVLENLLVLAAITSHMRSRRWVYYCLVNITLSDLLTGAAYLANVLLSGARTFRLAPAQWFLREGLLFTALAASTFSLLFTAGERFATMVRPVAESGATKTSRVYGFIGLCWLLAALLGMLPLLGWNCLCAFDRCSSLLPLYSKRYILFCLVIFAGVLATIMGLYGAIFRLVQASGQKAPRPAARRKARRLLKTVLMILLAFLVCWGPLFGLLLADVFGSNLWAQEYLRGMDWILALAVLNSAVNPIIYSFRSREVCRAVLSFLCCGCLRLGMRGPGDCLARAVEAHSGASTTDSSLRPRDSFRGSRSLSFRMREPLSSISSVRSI", "test": "EDG-6 GTP [γ-35S] binding SPA assay", "format": "biochemical", "procedure": "as §1, §2, §3"}, "S1P-5 (EDG-8)": {"molecular_target": "T4, S1P-5 (EDG-8) (Homo sapiens, UniProt Q9H228)", "T4 construct": "expressed in transfected cells; host or cells: RE7777 cells as printed (membrane preparation)", "T4 sequence (Q9H228 whole entry)": "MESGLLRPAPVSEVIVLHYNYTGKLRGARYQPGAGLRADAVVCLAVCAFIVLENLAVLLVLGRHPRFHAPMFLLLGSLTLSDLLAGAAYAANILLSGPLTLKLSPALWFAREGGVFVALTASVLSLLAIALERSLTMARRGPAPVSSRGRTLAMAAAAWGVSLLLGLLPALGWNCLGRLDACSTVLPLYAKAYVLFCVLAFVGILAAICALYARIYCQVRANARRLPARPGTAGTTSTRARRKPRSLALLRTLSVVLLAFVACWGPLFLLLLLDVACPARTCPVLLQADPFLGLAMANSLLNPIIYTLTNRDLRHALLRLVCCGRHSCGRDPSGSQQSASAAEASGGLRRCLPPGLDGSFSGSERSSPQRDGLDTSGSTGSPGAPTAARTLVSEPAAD", "test": "EDG-8 GTP [γ-35S] binding SPA assay", "format": "biochemical", "procedure": "as §1, §2, §3"}},
  "note": "Like-named read-outs stand apart in the source and are kept apart here.",
  "data": [
    {"compound": "Cc1cc(OCc2ccc(C3CCN(CCC(=O)O)CC3)cc2)ccc1C1CCCCC1", "note": "[Example 1, 3-{4-[4-(4-Cyclohexyl-3-methyl-phenoxymethyl)-phenyl]-piperidin-1-yl}-propionic acid]", "values": [
      {"measurement": "EC50", "setting": "human EDG-1 (S1P-1)", "result": 0.22, "unit": "nM"},
      {"measurement": "selectivity for S1P-1 compared to one or more of the other receptors", "setting": "human EDG-1 (S1P-1); versus S1P-3, S1P-5, S1P-6 and S1P-8 as printed", "result": "at least 1000 fold"},
      {"measurement": "ED50", "setting": "[1]; time point not stated", "result": 0.1, "unit": "mg/kg"}
    ]},
    {"compound": "Cc1cc(OCc2ccc(C3CCN(CCC(=O)O)CC3)cc2)ccc1-c1ccccc1", "note": "[Example 8, 3-{4-[4-(2-Methyl-biphenyl-4-yloxymethyl)-phenyl]-piperidin-1-yl}-propionic acid]", "values": [
      {"measurement": "EC50", "setting": "human EDG-1 (S1P-1)", "result": 2, "unit": "nM"},
      {"measurement": "EC50", "setting": "S1P-2 (EDG-5)", "result": "> 10000", "unit": "nM"},
      {"measurement": "EC50", "setting": "S1P-3 (EDG-3)", "result": 2000, "unit": "nM"},
      {"measurement": "EC50", "setting": "S1P-4 (EDG-6)", "result": "> 10000", "unit": "nM"},
      {"measurement": "EC50", "setting": "S1P-5 (EDG-8)", "result": 370, "unit": "nM"},
      {"measurement": "ED50", "setting": "[1]; at 6 hours", "result": 0.2, "unit": "mg/kg"},
      {"measurement": "ED50", "setting": "[1]; at 48 hours", "result": 0.8, "unit": "mg/kg"}
    ]}
  ]
}
